# Laboratory results as given in US20040170622A1, “Methods and compositions for modulating XBP-1 activity” (President and Fellows of Harvard College, priority 2002, published 2004).
# Where a SMILES comes first, the peptide text is derived from it. The star is where a group is joined. Cbz = O=C(OCc1ccccc1)*
# System: XBP-1u and XBP-1s proteins
# Test: XBP-1u and XBP-1s protein levels in J558 cells (Western blot)
# Format: cell-based
# Protocol: (A) BiP and CHOP induction was examined by northern blot analysis after treating NIH3T3 or J558 myeloma cells with either MG-132 (20 μM), Tm (10 μg/ml) or both. Cells were pretreated with MG-132 for 1 hr and then further treated with Tm for 4 hrs. Ethidium bromide staining of the gel is shown at the bottom. (B) Inhibition of caspase-12 processing by proteasome inhibitors. Processing of full-length caspase-12 was examined by Western blotting in J558 myeloma cells treated with thapsigargin (1 μM) or PIs (20 μM) during the indicated time periods. (C) Alteration in the ratio of XBP-1 protein species in J558 cells were treated with increasing amounts of MG-132 for 16 hrs. Cells undergoing apoptosis were counted by Annexin V staining. (D) Time course of the XBP-1s to XBP-1u shift. Cells were treated with MG-132 (1 μM) for the indicated times and XBP-1u and spliced protein levels and cell death determined. (E) Alteration in the ratio of XBP-1 species in the MM.1s human myeloma line. Cells were treated with PS-341 (8 nM) in a time course analysis and XBP-1 protein species quantified.
# Cells were lysed in RIPA buffer (50 mM Tris pH 7.4, 150 mM NaCl, 1 mM EDTA, 1% Triton X-100, 1% sodium deoxycholate, 0.1% SDS) and lysates subjected to SDS-PAGE and transferred to Hybond P membrane (Amersham-Pharmacia, Piscataway, N.J.). […] HeLa cells were cotransfected with XBP-1u and His-tagged ubiquitin expression plasmids (pMT 107, D. Bohmann, EMBL, Germany) by using the Lipofectamine-2000 reagent (Invitrogen, Carlsbad, Calif.). […] Degradation rates of XBP-1u and XBP-1s proteins were determined by pulse labeling J558 cells with ^35S Met/Cys for 1 hr and chasing for the indicated times.
compound,measurement,setting,value
CC(C)C[C@@H](C=O)NC(=O)[C@H](CC(C)C)NC(=O)[C@H](CC(C)C)NC(=O)OCc1ccccc1 [MG-132] (Cbz-Leu-Leu-Leu-aldehyde),"XBP-1s protein level, time course","J558, MG-132 1 μM",rapidly declined after 4 hours of treatment and was barely detectable by 16 hours
same,onset of XBP-1u increase,"J558, MG-132 1 μM",as early as one hour post treatment
same,time of XBP-1u peak,"J558, MG-132 1 μM",8 h
same,XBP-1u accumulation and XBP-1s decrease,"J558 cells, 16 hrs",striking accumulation of XBP-1 u and a concomitant decrease in XBP-1s proteins
